One test concerns the target T1, Human PD-L1/PD-1 (Homo sapiens, UniProt Q9NZQ7).
T1 construct: made in house; host or cells: HEK293T
The test can be described thus: HTRF PD-1-Ig/PD-L1-His binding assay (human PD-L1). The following applies: cluster symbol; read-out: HTRF IC50 cluster. The method, boiled down: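 Ig- and His-fused extracellular PD-1/PD-L1 binding in BSA/Tween-20 dPBS. HTRF with Eu anti-Ig (1 nM final) and APC anti-His (20 nM final).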

Test [1] has as its target T2, LK35.2-hPD-L1 cells / PE-labeled PD-1-Ig (Homo sapiens, UniProt Q9NZQ7).
T2 construct: expressed in transfected cells; host or cells: LK35.2 mouse B cell line
The test can be described thus: LK35.2-hPD-L1 cell binding high-content screening assay. Format: cell-based. The note with it: cluster symbol; cell line of CBA not given (LK35.2-hPD-L1 or 293T-hPD-L1); read-out: CBA IC50 cluster. In outline:
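Mouse LK35.2 B cells stably overexpressing human PD-L1 were cultured overnight in RPMI with 10% FCS, then given compound and PE-labeled human PD-1-Ig (1 nM final) for 1 h at 37 °C. After three dPBS washes, bound fluorescence was quantified by high-content imaging.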

The structures appear in SMILES notation. Positions of bridges follow the written chain, without caps; N, C: chain ends. Non-standard residues stand in square brackets, D forms with d. Residues, ends and D or L forms follow the SMILES beside them. Phe(F5) = N[C@@H](Cc1c(F)c(F)c(F)c(F)c1F)C(=O)O; Ala(thiazol-5-yl) = N[C@@H](Cc1cncs1)C(=O)O; NMeNle = CCCC[C@H](NC)C(=O)O; NMeA = CN[C@@H](C)C(=O)O; Orn = NCCC[C@H](N)C(=O)O; Dab = NCC[C@H](N)C(=O)O; Dap = NC[C@H](N)C(=O)O; Sar = CNCC(=O)O Bounds are passed on as bounds.

T2 sequence (Q9NZQ7 19-290): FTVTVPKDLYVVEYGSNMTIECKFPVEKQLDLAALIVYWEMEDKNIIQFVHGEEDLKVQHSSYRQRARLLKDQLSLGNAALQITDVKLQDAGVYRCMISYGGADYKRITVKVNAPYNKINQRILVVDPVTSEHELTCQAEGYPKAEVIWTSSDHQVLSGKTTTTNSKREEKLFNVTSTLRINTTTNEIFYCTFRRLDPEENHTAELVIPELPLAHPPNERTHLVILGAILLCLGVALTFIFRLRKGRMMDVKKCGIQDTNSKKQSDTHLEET
T1 sequence (Q9NZQ7 with tags, fused parts or gaps): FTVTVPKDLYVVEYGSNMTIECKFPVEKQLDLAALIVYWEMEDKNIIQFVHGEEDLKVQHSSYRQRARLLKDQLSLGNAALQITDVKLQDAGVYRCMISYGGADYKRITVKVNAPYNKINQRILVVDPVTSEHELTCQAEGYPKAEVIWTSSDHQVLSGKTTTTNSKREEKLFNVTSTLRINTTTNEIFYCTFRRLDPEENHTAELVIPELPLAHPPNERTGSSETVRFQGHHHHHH

As for `CCCC[C@H]1C(=O)N(C)[C@@H](CCCC)C(=O)N[C@@H](CC(=O)O)C(=O)N[C@H](C(=O)NCC(N)=O)CSCC(=O)N[C@@H](Cc2ccccc2)C(=O)N(C)[C@@H](C)C(=O)N[C@@H](CC(=O)O)C(=O)N2CCC[C@H]2C(=O)N[C@@H](Cc2cnc[nH]2)C(=O)N[C@@H](CCCNC(=N)N)C(=O)N(C)CC(=O)N[C@@H](Cc2c[nH]c3ccccc23)C(=O)N[C@@H](CCCNC(=N)N)C(=O)N[C@@H](Cc2c[nH]c3ccccc23)C(=O)N1C` [Example 1056] ({CH2CO}-F[NMeA]DPHR[Sar]WRW[NMeNle][NMeNle]DCG-NH2; thioether N-14), the values for the IC50 (on Human PD-L1/PD-1; in test [1]) were 6.76 to 30.3 nM and 4.78 to 72.9 nM, respectively.

Regarding `CCCC[C@H]1C(=O)N[C@@H](CCCNC(=N)N)C(=O)N[C@H](C(=O)NCC(N)=O)CSCC(=O)N[C@@H](Cc2ccccc2)C(=O)N(C)[C@@H](C)C(=O)N[C@@H](CC(N)=O)C(=O)N2CCC[C@H]2C(=O)N[C@@H](Cc2cnc[nH]2)C(=O)N[C@@H](CC(C)C)C(=O)N(C)CC(=O)N[C@@H](Cc2c[nH]c3ccccc23)C(=O)N[C@@H](CO)C(=O)N[C@@H](Cc2c[nH]c3ccccc23)C(=O)N[C@@H](C)C(=O)N1C` [Example 1057] (HELM PEPTIDE1{[O=C(C[*:3])[*:2]].F.[meA].N.P.H.L.[Sar].W.S.W.A.[CCCC[C@@H](C(=O)[*:2])N(C)[*:1]].R.C.G.[am]}$PEPTIDE1,PEPTIDE1,1:R3-15:R3$$$V2.0), the IC50 (usually the concentration that gives 50% inhibition) at Human PD-L1/PD-1 is more than 30.5 nM; in test [1], more than 74.3 nM.

Turning to `CCCC[C@H]1C(=O)N[C@@H](CCCNC(=N)N)C(=O)N[C@H](C(=O)NCC(N)=O)CSCC(=O)N[C@@H](Cc2ccccc2)C(=O)N(C)[C@@H](C)C(=O)N[C@@H](CC(N)=O)C(=O)N2CCC[C@H]2C(=O)N[C@@H](Cc2cnc[nH]2)C(=O)N[C@@H](CC(C)C)C(=O)N(C)CC(=O)N[C@@H](Cc2c[nH]c3ccccc23)C(=O)N[C@@H](CO)C(=O)N[C@@H](Cc2c[nH]c3ccccc23)C(=O)N[C@@H](Cc2c(F)c(F)c(F)c(F)c2F)C(=O)N1C` [Example 1058] ({CH2CO}-F[NMeA]NPHL[Sar]WSW[Phe(F5)][NMeNle]RCG-NH2; thioether N-14), the IC50 on Human PD-L1/PD-1 is more than 30.5 nM; in test [1], more than 74.3 nM.

Turning to `CCCC[C@H]1C(=O)N(C)[C@@H](CCCC)C(=O)N[C@@H](CCCNC(=N)N)C(=O)N[C@H](C(=O)NCC(N)=O)CSCC(=O)N[C@@H](Cc2ccccc2)C(=O)N(C)[C@@H](C)C(=O)N[C@@H](CC(N)=O)C(=O)N2CCC[C@H]2C(=O)N[C@@H](CCCN)C(=O)N[C@@H](CC(C)C)C(=O)N(C)CC(=O)N[C@@H](Cc2c[nH]c3ccccc23)C(=O)N[C@@H](CO)C(=O)N[C@@H](Cc2c[nH]c3ccccc23)C(=O)N1C` [Example 1059] ({CH2CO}-F[NMeA]NP[Orn]L[Sar]WSW[NMeNle][NMeNle]RCG-NH2; thioether N-14), the IC50 at Human PD-L1/PD-1 is more than 30.5 nM; in test [1], more than 74.3 nM.

Take `CCCC[C@H]1C(=O)N(C)[C@@H](CCCC)C(=O)N[C@@H](CCCNC(=N)N)C(=O)N[C@H](C(=O)NCC(N)=O)CSCC(=O)N[C@@H](Cc2ccccc2)C(=O)N(C)[C@@H](C)C(=O)N[C@@H](CC(N)=O)C(=O)N2CCC[C@H]2C(=O)N[C@@H](CN)C(=O)N[C@@H](CC(C)C)C(=O)N(C)CC(=O)N[C@@H](Cc2c[nH]c3ccccc23)C(=O)N[C@@H](CO)C(=O)N[C@@H](Cc2c[nH]c3ccccc23)C(=O)N1C` [Example 1060] ({CH2CO}-F[NMeA]NP[Dap]L[Sar]WSW[NMeNle][NMeNle]RCG-NH2; thioether N-14): the results for the IC50 (at Human PD-L1/PD-1; in test [1]) were 6.76 to 30.3 nM and 4.78 to 72.9 nM, respectively.

`CCCC[C@H]1C(=O)N(C)[C@@H](CCCC)C(=O)N[C@@H](CCCNC(=N)N)C(=O)N[C@H](C(=O)NCC(N)=O)CSCC(=O)N[C@@H](Cc2ccccc2)C(=O)N(C)[C@@H](C)C(=O)N[C@@H](CC(N)=O)C(=O)N2CCC[C@H]2C(=O)N[C@@H](Cc2cnc[nH]2)C(=O)N[C@@H](CC(C)C)C(=O)N(C)CC(=O)N[C@@H](Cc2c[nH]c3ccccc23)C(=O)N[C@H](C)C(=O)N[C@@H](Cc2c[nH]c3ccccc23)C(=O)N1C` [Example 1061] ({CH2CO}-F[NMeA]NPHL[Sar]W[dA]W[NMeNle][NMeNle]RCG-NH2; thioether N-14): the IC50 was more than 30.5 nM at Human PD-L1/PD-1 and more than 74.3 nM in test [1].

As to `CCCC[C@H]1C(=O)N(C)[C@@H](CCCC)C(=O)N[C@@H](CCCNC(=N)N)C(=O)N[C@H](C(=O)NCC(N)=O)CSCC(=O)N[C@@H](Cc2ccccc2)C(=O)N(C)[C@@H](C)C(=O)N[C@@H](CC(N)=O)C(=O)N2CCC[C@H]2C(=O)N[C@@H](CCN)C(=O)N[C@@H](CC(C)C)C(=O)N(C)CC(=O)N[C@@H](Cc2c[nH]c3ccccc23)C(=O)N[C@@H](CO)C(=O)N[C@@H](Cc2c[nH]c3ccccc23)C(=O)N1C` [Example 1062] ({CH2CO}-F[NMeA]NP[Dab]L[Sar]WSW[NMeNle][NMeNle]RCG-NH2; thioether N-14), the IC50 on Human PD-L1/PD-1 fell in the range of 6.76 to 30.3 nM; in test [1] it was 4.78 to 72.9 nM.

Take `CCCC[C@H]1C(=O)N(C)[C@@H](CCCC)C(=O)N[C@@H](CCCNC(=N)N)C(=O)N[C@H](C(=O)NCC(N)=O)CSCC(=O)N[C@@H](Cc2ccccc2)C(=O)N(C)[C@@H](C)C(=O)N[C@@H](CC(N)=O)C(=O)N2CCC[C@H]2C(=O)N[C@@H](CC(N)=O)C(=O)N[C@@H](CC(C)C)C(=O)N(C)CC(=O)N[C@@H](Cc2c[nH]c3ccccc23)C(=O)N[C@@H](CO)C(=O)N[C@@H](Cc2c[nH]c3ccccc23)C(=O)N1C` [Example 1063] ({CH2CO}-F[NMeA]NPNL[Sar]WSW[NMeNle][NMeNle]RCG-NH2; thioether N-14): the IC50 was more than 30.5 nM on Human PD-L1/PD-1 and more than 74.3 nM in test [1].

For the compound `CCCC[C@H]1C(=O)N(C)[C@@H](CCCC)C(=O)N[C@@H](CCCNC(=N)N)C(=O)N[C@H](C(=O)NCC(N)=O)CSCC(=O)N[C@@H](Cc2ccccc2)C(=O)N(C)[C@@H](C)C(=O)N[C@@H](CC(N)=O)C(=O)N2CCC[C@H]2C(=O)N[C@@H](CC(=O)O)C(=O)N[C@@H](CC(C)C)C(=O)N(C)CC(=O)N[C@@H](Cc2c[nH]c3ccccc23)C(=O)N[C@@H](CO)C(=O)N[C@@H](Cc2c[nH]c3ccccc23)C(=O)N1C` [Example 1064] ({CH2CO}-F[NMeA]NPDL[Sar]WSW[NMeNle][NMeNle]RCG-NH2; thioether N-14), the IC50 was more than 30.5 nM on Human PD-L1/PD-1 and more than 74.3 nM in test [1].

For the compound `CCCC[C@H]1C(=O)N(C)[C@@H](CCCC)C(=O)N[C@@H](CCCNC(=N)N)C(=O)N[C@H](C(=O)NCC(N)=O)CSCC(=O)N[C@@H](Cc2ccccc2)C(=O)N(C)[C@@H](C)C(=O)N[C@@H](CC(N)=O)C(=O)N2CCC[C@H]2C(=O)N[C@@H](Cc2cnc[nH]2)C(=O)N[C@@H](CC(C)C)C(=O)N(C)CC(=O)N[C@@H](Cc2c[nH]c3ccccc23)C(=O)N[C@H](CO)C(=O)N[C@@H](Cc2c[nH]c3ccccc23)C(=O)N1C` [Example 1065] ({CH2CO}-F[NMeA]NPHL[Sar]W[dS]W[NMeNle][NMeNle]RCG-NH2; thioether N-14), the IC50 at Human PD-L1/PD-1 was more than 30.5 nM; in test [1], more than 74.3 nM.

With `CCCC[C@H]1C(=O)N(C)[C@@H](CCCC)C(=O)N[C@@H](CCCNC(=N)N)C(=O)N[C@H](C(=O)NCC(N)=O)CSCC(=O)N[C@@H](Cc2ccccc2)C(=O)N(C)[C@@H](C)C(=O)N[C@@H](CC(N)=O)C(=O)N2CCC[C@H]2C(=O)N[C@@H](Cc2cncs2)C(=O)N[C@@H](CC(C)C)C(=O)N(C)CC(=O)N[C@@H](Cc2c[nH]c3ccccc23)C(=O)N[C@@H](CO)C(=O)N[C@@H](Cc2c[nH]c3ccccc23)C(=O)N1C` [Example 1067] ({CH2CO}-F[NMeA]NP[Ala(thiazol-5-yl)]L[Sar]WSW[NMeNle][NMeNle]RCG-NH2; thioether N-14), the figures for the IC50 (at Human PD-L1/PD-1; in test [1]) were more than 30.5 nM and more than 74.3 nM, respectively.

As for `CCCC[C@H]1C(=O)N(C)[C@@H](CCCC)C(=O)N[C@@H](CCCNC(=N)N)C(=O)N[C@H](C(=O)NCC(N)=O)CSCC(=O)N[C@@H](Cc2ccccc2)C(=O)N(C)[C@@H](C)C(=O)N[C@@H](CC(N)=O)C(=O)N2CCC[C@H]2C(=O)N[C@@H](Cc2cnc[nH]2)C(=O)N[C@@H](CC(C)C)C(=O)N(C)CC(=O)N[C@@H](Cc2c[nH]c3ccccc23)C(=O)N[C@@H](Cc2cnc[nH]2)C(=O)N[C@@H](Cc2c[nH]c3ccccc23)C(=O)N1C` [Example 1068] ({CH2CO}-F[NMeA]NPHL[Sar]WHW[NMeNle][NMeNle]RCG-NH2; thioether N-14), the IC50 at Human PD-L1/PD-1 is more than 30.5 nM; in test [1] it was more than 74.3 nM.

With `CCCC[C@H]1C(=O)N(C)[C@@H](CCCC)C(=O)N[C@@H](CCCNC(=N)N)C(=O)N[C@H](C(=O)NCC(N)=O)CSCC(=O)N[C@@H](Cc2ccccc2)C(=O)N(C)[C@@H](C)C(=O)N[C@@H](CC(N)=O)C(=O)N2CCC[C@H]2C(=O)N[C@@H](Cc2cnc[nH]2)C(=O)N[C@@H](CC(C)C)C(=O)N(C)CC(=O)N[C@@H](Cc2c[nH]c3ccccc23)C(=O)N[C@@H](CCCCN)C(=O)N[C@@H](Cc2c[nH]c3ccccc23)C(=O)N1C` [Example 1069] ({CH2CO}-F[NMeA]NPHL[Sar]WKW[NMeNle][NMeNle]RCG-NH2; thioether N-14), the IC50 at Human PD-L1/PD-1 was in the range of 0.385 to 6.74 nM; in test [1], 4.78 to 72.9 nM.

Regarding `CCCC[C@H]1C(=O)N(C)[C@@H](CCCC)C(=O)N[C@@H](CCCNC(=N)N)C(=O)N[C@H](C(=O)NCC(N)=O)CSCC(=O)N[C@@H](Cc2ccccc2)C(=O)N(C)[C@@H](C)C(=O)N[C@@H](CC(N)=O)C(=O)N2CCC[C@H]2C(=O)N[C@@H](Cc2cnc[nH]2)C(=O)N[C@@H](CC(C)C)C(=O)N(C)CC(=O)N[C@@H](Cc2c[nH]c3ccccc23)C(=O)N[C@@H](CCCN)C(=O)N[C@@H](Cc2c[nH]c3ccccc23)C(=O)N1C` [Example 1070] ({CH2CO}-F[NMeA]NPHL[Sar]W[Orn]W[NMeNle][NMeNle]RCG-NH2; thioether N-14), the IC50 lay in the range of 6.76 to 30.3 nM on Human PD-L1/PD-1 and 4.78 to 72.9 nM in test [1].

The values above are taken from patent US9850283B2, “Macrocyclic inhibitors of the PD-1/PD-L1 and CD80(B7-1)/PD-L1 protein/protein interactions” (BRISTOL-MYERS SQUIBB COMPANY, priority 2013, dated 2017).
